The record followed here is patent publication US9440969B2, “Compounds and methods for kinase modulation, and indications therefor” (PLEXXIKON INC., priority 2009, dated 2016).

One series has as its target c-Raf-1 (Homo sapiens, UniProt P04049). In words: c-Raf-1 kinase activity assay (AlphaScreen, biotin-MEK1 substrate). Particulars: 100 μM ATP, 100 nM biotin-MEK1, 45 minutes at room temperature; read-out: Biochemical activity (IC50 μM) c-Raf-1. On the procedure: Assays for biochemical and cell based activity are known in the art, for example, as described in PCT publication WO 2007/002433, the disclosure of which is hereby incorporated by reference as it relates to such assays. For example, the biochemical activity IC50 values are determined with respect to inhibition of B-Raf kinase activity, c-Raf-1 kinase activity, or B-Raf V600E kinase activity, where inhibition of phosphorylation of a peptide substrate is measured as a function of compound concentration. Compounds to be tested are diluted in dimethyl sulfoxide to a concentration of 0.1 mM. These are serially diluted 15 μL into 30 μL of dimethyl sulfoxide seven times in 96 well plates for a total of 8 dilution points, and for each dilution point 1 μL is added to a well of an assay plate. Plates are prepared such that each well in a 384 well plate contains 1 μL of compound in 10 μL, volume with 0.1 ng Raf enzyme (i.e. any of B-Raf, c-Raf-1 or B-Raf V600E, Upstate Biotechnology or prepared by methods known to one of skill in the art), 50 mM HEPES, pH 7.0, 50 mM NaCl, 2 mM MgCl2, 1 mM MnCl2, 0.01% Tween-20, 1 mM DTT, and 100 nM biotin-MEK1 as substrate. The reaction is started with addition of 10 μL of 200 μM ATP (i.e. final 100 μM ATP). After incubation of the kinase reaction for 45 minutes at room temperature, 5 μL/well of Stop Solution is added (25 mM Hepes pH 7.5, 100 mM EDTA, 0.01% BSA with donor beads (Streptavidin coated beads, Perkin Elmer), acceptor beads (Protein A coated, Perkin Elmer), and anti phosphor MEK1/2 antibody (CellSignal), each at final concentration 10 μg/mL). The plates are incubated for 3 hours at room temperature and read on Envision reader (Perkin Elmer). Phosphorylation of Mek1 results in binding of the anti-phosphor-MEK1/2 antibody and association of the donor and acceptor beads such that signal correlates with kinase activity. The signal vs. compound concentration is used to determine the IC50.
For orientation: In Alpha technology, singlet oxygen from a donor bead excites a nearby acceptor bead.

In a further series the target is B-Raf (Homo sapiens, UniProt P15056). In words: B-Raf kinase activity assay (AlphaScreen, biotin-MEK1 substrate). Particulars: 100 μM ATP, 100 nM biotin-MEK1, 45 minutes at room temperature; read-out: Biochemical activity (IC50 μM) B-Raf. The method, boiled down:
(§1)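 Each Raf enzyme (0.1 ng) phosphorylates 100 nM biotin-MEK1 in pH 7.0 HEPES with Mg2+/Mn2+, 100 μM ATP final, 45 min at room temperature. Phospho-MEK1/2 antibody with AlphaScreen beads is read after 3 h. IC50 comes from an 8-point dilution series.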

The target in the next series is B-Raf V600E (Homo sapiens, UniProt P15056, V600E). In words: B-Raf V600E kinase activity assay (AlphaScreen, biotin-MEK1 substrate). Particulars: 100 μM ATP, 100 nM biotin-MEK1, 45 minutes at room temperature, read-out: Biochemical activity (IC50 μM) V600E. Put shortly: as §1
Chain of B-Raf V600E (P15056 whole entry V600E): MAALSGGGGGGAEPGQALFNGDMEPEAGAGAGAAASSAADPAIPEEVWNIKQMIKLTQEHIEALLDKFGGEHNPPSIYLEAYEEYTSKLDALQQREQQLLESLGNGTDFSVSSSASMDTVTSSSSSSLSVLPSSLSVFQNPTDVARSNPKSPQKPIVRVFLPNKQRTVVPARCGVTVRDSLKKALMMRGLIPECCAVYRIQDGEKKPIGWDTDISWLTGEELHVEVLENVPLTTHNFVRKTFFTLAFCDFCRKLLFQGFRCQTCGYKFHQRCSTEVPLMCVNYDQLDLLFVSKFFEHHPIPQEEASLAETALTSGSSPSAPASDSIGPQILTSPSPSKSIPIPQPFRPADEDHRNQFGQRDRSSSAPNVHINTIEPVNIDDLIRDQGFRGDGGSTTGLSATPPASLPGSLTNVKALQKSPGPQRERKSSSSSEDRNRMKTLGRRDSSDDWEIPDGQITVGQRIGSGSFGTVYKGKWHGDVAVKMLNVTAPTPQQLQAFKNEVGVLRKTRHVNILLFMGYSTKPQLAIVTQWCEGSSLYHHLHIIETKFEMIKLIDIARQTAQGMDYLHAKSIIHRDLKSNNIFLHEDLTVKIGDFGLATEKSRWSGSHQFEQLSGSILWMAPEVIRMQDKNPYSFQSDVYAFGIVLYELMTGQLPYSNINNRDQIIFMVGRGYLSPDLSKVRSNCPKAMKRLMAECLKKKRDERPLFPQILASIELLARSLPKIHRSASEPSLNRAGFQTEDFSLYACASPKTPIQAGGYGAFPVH
The subject of series [1] is COLO205 colon adenocarcinoma (B-Raf V600E mutation). In words: COLO205 cell growth inhibition (ATPlite luminescence). The series is classed as cell-based. To be noted: Homo sapiens, COLO 205, 72 h, COLO205 cells, incubated 3 days with compound. On the procedure:
Compounds are assessed in a variety of cell based assays. For example human cell lines with B-Raf V600E mutation (A375 melanoma, SKMEL3 melanoma, and COLO205 colon adenocarcinoma), as well as tumorigenic cell lines with wild-type B-RAF (SW620 colon adenocarcinoma) or with Ras mutations (SKMEL2 melanoma and IPC298 melanoma). Similar assays may be used to assess additional tumorigenic cell lines with Ras mutations, including, but not limited to, M202, M207, M243, M244, M296, S117, HCT116, HCT15, DLD1, MiaPaCa, A549, NCI-H23, NCI-H460, HOP62, MDA-MB231, Hs-578T, HL60, MOLT-4, and CCRF-CEM.
On day 1, cells are counted, then centrifuged in a conical tube for 5 minutes at 1000 rpm. The supernatant is removed and cells are re-suspended as follows: • SW620 (ATCC catalog #CCL-27): resuspend in Leibovitz's L-15 medium, 2 mM L-glutamine, 10% fetal bovine serum to 6×10^4 cells/mL. • A375 (ATCC catalog #CRL-1619): resuspend in Dulbecco's modified Eagle's medium, 4 mM L-glutamine, 4.5 g/L D-glucose, 10% fetal bovine serum to 6×10^4 cells/mL. • COLO205 (ATCC catalog #CCL-222): resuspend in RPMI 1640, 2 mM L-glutamine, 1.5 g/L sodium bicarbonate, 4.5 g/L D-glucose, 10 mM HEPES, 1.0 mM sodium pyruvate, 10% fetal bovine serum to 6×10^4 cells/mL. • SKMEL2 (ATCC catalog #HTB-68): resuspend in Minimum Eagle essential medium, 2 mM L-glutamine, 1.5 g/L sodium bicarbonate, 0.1 mM non-essential amino acids, 1.0 mM sodium pyruvate, 10% fetal bovine serum to 6×10^4 cells/mL. • SKMEL3 (ATCC catalog #HTB-69): resuspend in McCoy's 5A medium, 1.5 mM L-glutamine, 15% fetal bovine serum to 6×10^4 cells/mL. • IPC298 (DSMZ catalog #ACC 251): resuspend in RPMI 1640, 2 mM L-glutamine, 10% fetal bovine serum to 6×10^4 cells/mL.
The cells are plated, 50 μL in each well of a 96-well dish (Corning 3610) and incubated at 37° C. in 5% CO2 overnight, cells plated to a final concentration of cells as follows:
On day 2, compound at a maximum concentration of 5 mM is serially diluted 1:3 (e.g. 10 μL with 30 μL dimethyl sulfoxide) for a total of 8 point titration with DMSO as a control. A 1 μL aliquot of each dilution point and control is added to 249 μL growth media and 50 μL is added to a well containing cells, providing 10 μM compound at the maximum concentration point. The cells are incubated for 3 days at 37° C. in 5% CO2.
On day 5, ATPlite 1 step Luminescence Assay System (Perkin Elmer #6016739) is brought to room temperature along with the cell cultures. ATPlite is added 25 μL to each well, shake for 2 minutes, and the cells are incubated at room temperature for 10 minutes, then luminescence is read on Safire reader. The measured luminescence correlates directly with cell number, such that the reading as a function of compound concentration is used to determine the IC50 value.
It is understood that the results of these assays may vary as assay conditions are varied. Inhibition levels determined under the conditions described herein represent a relative activity for the compounds tested under the specific conditions employed. The cell based assays are likely to show variability due to the complexity of the system and the sensitivity thereof to any changes in the assay conditions. […] Results for compounds that are tested and show substantially no inhibition below the highest tested concentration are represented as “-” in the tables below. In some instances, the compounds were not tested in all of the assays, or assay results were not valid, as indicated by NA in the tables below.
(ATP-based viability assays read luminescence as a measure of living cells.)

Series [2] can be described thus: Relative solubility by turbidity in aqueous buffers (pH 1.5, 4.5, 6.8, 7.4). Format: physicochemical. Particulars: for turbidity threshold (L, M, H) 1.4: pH 1.5 buffer (SGF); for turbidity threshold (L, M, H) 4.5: pH 4.5 buffer (SIF); for turbidity threshold (L, M, H) 6.8: pH 6.8 buffer (SIF); for turbidity threshold (L, M, H) 7.4: pH 7.4 buffer (HEPES). On the procedure:
As an indication of relative solubility, the turbidity of compounds in aqueous solutions is assessed. To assess possible compound properties in different physiological compartments, such as stomach, intestine, and blood, a series of aqueous buffers with varying pH is used. Thus each compound is diluted into four different physiologically relevant buffers and solution turbidity is measured by spectrophotometry.
Compounds are dissolved at a concentration of 25 mM in dimethyl sulfoxide, then serially diluted 1:1 into a 96 well plate, diluting 10 times in pure dimethyl sulfoxide, with the final well of each row a dimethyl sulfoxide blank. In an assay plate, 99 μL of appropriate buffer is added to each well, and 1 μL of each sample dilution is added to the buffer, achieving a range of final total concentrations in aqueous solutions having different pH. The buffers used are Simulated Gastric Fluid (SGF-pH 1.5) 0.5M NaCl, pH 1.5; Simulated Intestinal fluid (SIF-pH 4.5 and pH 6.8) 0.05M NaH2PO4, pH 4.5 and 6.8; and Hepes Buffer (HEPES-pH 7.4) 10 mM HEPES, 150 mM NaCl, pH 7.4. Control compounds pyrene, estriol and propranolol HCl are also assessed. Plates are spun and then mixed for 1 minute, and the absorbance is read using a Tecan Safire II to read wavelengths in the visible range (490, 535, and 650 nm) at four locations per well, reflecting the degree of turbidity present. The average optical density for each wavelength in each well is graphed vs. compound concentration, and the concentration at which the curve crosses a threshold O.D. of 0.01 for each wavelength is reported as the endpoint turbidity assay result. The average of the three wavelengths is used to compare turbidity of compounds. Compounds are considered to have low solubility if the threshold concentration is <31.3 μM, moderate solubility if the threshold concentration is 31.3 μM to 250 μM, and high solubility if the threshold concentration is >250 μM.
The following table indicates the relative solubility (L=low, M=moderate, H=high) based on turbidity threshold concentration at each pH for exemplary compounds according to the invention: […]

Chain of c-Raf-1 (P04049 whole entry Y340D/Y341D, form open): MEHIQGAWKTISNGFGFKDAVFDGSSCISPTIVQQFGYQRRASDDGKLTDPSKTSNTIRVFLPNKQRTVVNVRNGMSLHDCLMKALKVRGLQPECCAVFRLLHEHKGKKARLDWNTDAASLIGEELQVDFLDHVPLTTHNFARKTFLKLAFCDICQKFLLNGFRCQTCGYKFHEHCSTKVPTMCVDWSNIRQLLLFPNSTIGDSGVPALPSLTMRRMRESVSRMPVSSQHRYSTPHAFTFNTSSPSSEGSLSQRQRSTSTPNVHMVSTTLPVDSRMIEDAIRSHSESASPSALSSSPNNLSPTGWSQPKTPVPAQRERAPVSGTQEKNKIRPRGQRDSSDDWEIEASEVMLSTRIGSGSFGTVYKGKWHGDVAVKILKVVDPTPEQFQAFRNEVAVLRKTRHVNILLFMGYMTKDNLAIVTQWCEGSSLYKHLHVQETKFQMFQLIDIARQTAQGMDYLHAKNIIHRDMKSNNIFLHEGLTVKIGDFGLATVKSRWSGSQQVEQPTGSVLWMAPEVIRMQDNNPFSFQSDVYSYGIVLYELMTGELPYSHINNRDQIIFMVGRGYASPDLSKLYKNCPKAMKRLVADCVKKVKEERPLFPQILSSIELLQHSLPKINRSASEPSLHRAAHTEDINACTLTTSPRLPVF
Chain of B-Raf (P15056 whole entry): as the sequence (P15056 whole entry V600E) above, with E600V counted along it

By IC50 is commonly meant the concentration needed to halve the response being measured. As for `CCCS(=O)(=O)Nc1ccc(F)c(C(=O)c2c[nH]c3ncc(-c4cnc(-n5ccnc5)s4)cc23)c1F` [P-1104, Propane-1-sulfonic acid {2,4-difluoro-3-[5-(2-imidazol-1-yl-thiazol-5-yl)-1H-pyrrolo[2,3-b]pyridine-3-carbonyl]-phenyl}-amide], the half-maximal inhibitory concentration (IC50) at c-Raf-1 was less than 0.1 µM; on B-Raf, less than 0.1 µM; at B-Raf V600E, less than 0.1 µM; in series [1], less than 1 µM.

On to `CN(C)c1ncc(-c2cnc3[nH]cc(C(=O)c4c(F)ccc(NS(=O)(=O)c5cc(F)ccc5F)c4F)c3c2)cn1` [P-1502, N-{3-[5-(2-Dimethylamino-pyrimidin-5-yl)-1H-pyrrolo[2,3-b]pyridine-3-carbonyl]-2,4-difluoro-phenyl}-2,5-difluoro-benzenesulfonamide], for which the 50% inhibitory concentration (IC50) at c-Raf-1 is less than 0.1 µM. In series [2], the “turbidity threshold (L, M, H) 1.4” value is listed as “L (low solubility if the threshold concentration is <31.3 μM)”; the “turbidity threshold (L, M, H) 4.5” value is given as “L (low solubility if the threshold concentration is <31.3 μM)”; the “turbidity threshold (L, M, H) 6.8” value is reported as “L (low solubility if the threshold concentration is <31.3 μM)”; the “turbidity threshold (L, M, H) 7.4” value was “L (low solubility if the threshold concentration is <31.3 μM)”. In addition, on B-Raf, the IC50 was less than 0.1 µM. In addition, at B-Raf V600E, the IC50 was less than 0.1 µM.

With `CN(C)c1ccc(-c2cnc3[nH]cc(C(=O)c4c(F)ccc(NS(=O)(=O)c5cc(F)ccc5F)c4F)c3c2)cn1` [P-1409, N-{3-[5-(6-Dimethylamino-pyridin-3-yl)-1H-pyrrolo[2,3-b]pyridine-3-carbonyl]-2,4-difluoro-phenyl}-2,5-difluoro-benzenesulfonamide], at c-Raf-1, the IC50 is less than 0.1 µM. Also, in series [2], the “turbidity threshold (L, M, H) 1.4” value is given as “L (low solubility if the threshold concentration is <31.3 μM)”; the “turbidity threshold (L, M, H) 4.5” value is “L (low solubility if the threshold concentration is <31.3 μM)”; the “turbidity threshold (L, M, H) 6.8” value was “L (low solubility if the threshold concentration is <31.3 μM)”; the “turbidity threshold (L, M, H) 7.4” value is “L (low solubility if the threshold concentration is <31.3 μM)”. Moreover, the IC50 at B-Raf is less than 0.1 µM. The concentration for half-maximal inhibition (IC50) on B-Raf V600E was less than 0.1 µM.

As for `COc1ncc(-c2cnc3[nH]cc(C(=O)c4c(F)ccc(NS(=O)(=O)c5cc(F)ccc5F)c4F)c3c2)c(OC)n1` [P-1501, N-{3-[5-(2,4-Dimethoxy-pyrimidin-5-yl)-1H-pyrrolo[2,3-b]pyridine-3-carbonyl]-2,4-difluoro-phenyl}-2,5-difluoro-benzenesulfonamide], the IC50 at c-Raf-1 was less than 0.1 µM. Further, in series [2], the “turbidity threshold (L, M, H) 1.4” value is recorded as “L (low solubility if the threshold concentration is <31.3 μM)”; the “turbidity threshold (L, M, H) 4.5” value is on record as “L (low solubility if the threshold concentration is <31.3 μM)”; the “turbidity threshold (L, M, H) 6.8” value was “L (low solubility if the threshold concentration is <31.3 μM)”; the “turbidity threshold (L, M, H) 7.4” value was “L (low solubility if the threshold concentration is <31.3 μM)”. The IC50 at B-Raf is less than 0.1 µM. The half-inhibitory concentration (IC50) at B-Raf V600E was less than 0.1 µM.

As for `COc1ccc(-c2cnc3[nH]cc(C(=O)c4c(F)ccc(NS(=O)(=O)c5cc(F)ccc5F)c4F)c3c2)c(OC)n1` [P-1406, N-{3-[5-(2,6-Dimethoxy-pyridin-3-yl)-1H-pyrrolo[2,3-b]pyridine-3-carbonyl]-2,4-difluoro-phenyl}-2,5-difluoro-benzenesulfonamide], the IC50 on c-Raf-1 was less than 0.1 µM. Besides, in series [2], the “turbidity threshold (L, M, H) 1.4” value was “L (low solubility if the threshold concentration is <31.3 μM)”; the “turbidity threshold (L, M, H) 4.5” value is “L (low solubility if the threshold concentration is <31.3 μM)”; the “turbidity threshold (L, M, H) 6.8” value is on record as “L (low solubility if the threshold concentration is <31.3 μM)”; the “turbidity threshold (L, M, H) 7.4” value was “L (low solubility if the threshold concentration is <31.3 μM)”. Also, the IC50 at B-Raf was less than 0.1 µM. The IC50 at B-Raf V600E was less than 0.1 µM.
